Measured values as given in US4086239A, “Thiazole bis-phosphates and phosphonates, intermediates, and insecticidal compositions and methods” (priority 1977, dated 1978).

test system: Southern House Mosquito [Culex pipiens quinquefasciatus (Say)]; experiment: Southern house mosquito larvae test; type: in vivo; conditions: ppm by weight in aqueous solution; third-instar larvae; mortality after 48 hours
Procedure: K. Southern House Mosquito [Culex pipiens quinquefasciatus (Say)]
Insecticidal activity is determined using third-instar larvae of the mosquito (Culex pipiens quinquefasciatus). Ten larvae are placed in a 6-ounce, number 67 Dixie wax paper cup containing 100 milliliters of an aqueous solution of the test chemical. The treated larvae are stored at 70° F, and 48 hours later the mortality is recorded. The primary screening level for this test is 1 ppm by weight of the test compound in the solution.
(§1) For a particular insect, each compound was initially tested at the primary screening level. For the two-spotted mite, the testing stopped at this point. Those compounds showing less than 50% kill are represented in the table by the primary screening level preceded by a "greater than" sign. For those showing more than 50% kill, a "less than" sign is used. For all other insects those compounds showing greater than 50% kill at the primary screening level were then tested at successively lower levels, until the level was found at which approximately 50% kill was achieved. This level is listed as the LD50 (50% lethal dose) value in Table III. For those compounds showing approximately 50% kill at the primary screening level, the primary screening level itself is listed as the LD50.
(§2) In cases where this level was found, the level is reported as the LD50. When the level of 50% kill was not found, the number listed is the highest concentration tested, whether primary screen or higher, preceded by a "greater than" sign to indicate that a higher level than reported must be used to achieve 50% kill.

Row | Compound | Approximate LD50, MOS (Southern house mosquito)
1 | CCOP(=S)(OCC)SCC(=O)Nc1csc(NC(=O)CSP(=S)(OCC)OCC)n1 [Compound 1] | .8 ppm

same assay, conditions: ppm by weight in aqueous solution; third-instar larvae; mortality after 48 hours; read-out: Approximate LD50, MOS (Southern house mosquito)

Row | Compound | LC50 [µg/mL]
2 | COP(=S)(OC)SCC(=O)Nc1csc(NC(=O)CSP(=S)(OC)OC)n1 [Compound 2, 2,4-Bis(O,O -dimethylphosphorodithioylacetamide)thiazole] | > 1

test system: Tobacco Budworm [Heliotis virescens (F.)]; experiment: Tobacco budworm leaf dip test; type: in vivo; conditions: % by weight in solution, larvae, 48 hours plus 5 days if survivors
Procedure: (§3) A test solution is prepared by dissolving the test compound in a 50-50 acetone-water solution. A section of a curly dock (Rumex crispus) leaf, aproximately 2.5 centimeters wide and 4 centimeters long, is immersed in the test solution for 2-3 seconds, then placed on a wire screen to dry. The dried leaf is placed in a petri dish containing a moistened piece of filter paper, and infested with 5 second-instar salt-marsh caterpillar larvae. Mortality of the larvae is recorded 48 hours later. If surviving larvae are still present, a piece of synthetic media is added to the dish and the larvae are observed for an additional 5 days in order to detect delayed effects of the test compound. The primary screening level for this test is 0.05% by weight of the test compound in the solution.
I. Tobacco Budworm [Heliotis virescens (F.)]
Larvae of the tobacco budworm are used in this test in a procedure identical to that used for salt-marsh caterpillar larvae, except that a Romaine lettace (Latua sativa) leaf section of approximately the same size as the curly dock leaf section is used in place of the latter. The primary screening level for this test is 0.1% by weight of the test compound in the solution.
as §1
In cases where this level was found, the level is reported as the LD50. […]

Row | Compound | Approximate LD50, TBW (tobacco budworm)
3 | CCOP(=S)(OCC)SCC(=O)Nc1csc(NC(=O)CSP(=S)(OCC)OCC)n1 [Compound 1] | > .1%
4 | COP(=S)(OC)SCC(=O)Nc1csc(NC(=O)CSP(=S)(OC)OC)n1 [Compound 2, 2,4-Bis(O,O -dimethylphosphorodithioylacetamide)thiazole] | > .1%

test system: Lygus bug [Lygus hesperus (Knight)]; experiment: Lygus bug spray insecticide evaluation; type: in vivo; conditions: % by weight in acetone-water spray; adults; mortality after 48 hours
Procedure: C. Lygus bus [Lygus hesperus (Knight)]
The test compound is dissolved in a 50-50 acetone-water solution. Two cubic centimeters of the solution are sprayed through a DeVilbiss-type EGA hand spray gun into a circular cardboard cage covered on the bottom with cellophane and the top with tulle netting, containing one string bean pod and 10 adult lygus bugs. Percent mortality is recorded after 48 hours. The primary screening level for this test is 0.5% by weight of the test compound in the acetone-water solution.
as §1, §2

Row | Compound | Approximate LD50, LB (Lygus bug)
5 | CCOP(=S)(OCC)SCC(=O)Nc1csc(NC(=O)CSP(=S)(OCC)OCC)n1 [Compound 1] | > .05%
6 | COP(=S)(OC)SCC(=O)Nc1csc(NC(=O)CSP(=S)(OC)OC)n1 [Compound 2, 2,4-Bis(O,O -dimethylphosphorodithioylacetamide)thiazole] | > .05%

test system: Cabbage Looper [Trichoplusia ni (Hubner)]; experiment: Cabbage looper leaf dip test; type: in vivo; conditions: % by weight in solution, larvae, 48 hours plus 5 days if survivors
Procedure: as §3
H. Cabbage Looper [Trichoplusia ni (Hubner)]
The procedure for cabbage looper larvae is the same as that used for salt-marsh caterpillar larvae, except that a cotyledon of hyzini squash (Calabacita abobrinha) of approximately the same size as the curly dock leaf section is used in place of the latter. The primary screening level for this test is 0.1% by weight of the test compound in the solution.
as §1, §2

Row | Compound | Approximate LD50, CL (cabbage looper)
7 | CCOP(=S)(OCC)SCC(=O)Nc1csc(NC(=O)CSP(=S)(OCC)OCC)n1 [Compound 1] | > .1%
8 | COP(=S)(OC)SCC(=O)Nc1csc(NC(=O)CSP(=S)(OC)OC)n1 [Compound 2, 2,4-Bis(O,O -dimethylphosphorodithioylacetamide)thiazole] | > .1%

test system: German Cockroach [Blatella germanica (Linne)]; experiment: German cockroach spray insecticide evaluation; type: in vivo; conditions: % by weight in acetone-water spray; nymphs; mortality after 7 days
Procedure: B. German Cockroach [Blatella germanica (Linne)]
The test compound is diluted in a 50-50 acetone-water solution. Two milliliters of the solution are sprayed through a DeVilbiss type EGA hand spray gun into a circular cardboard cage contaning 10 1-month-old German Cockroach nymphs. The test cage is covered on the bottom with cellophane and the top with tulle netting. Percent mortality is recorded after 7 days. The primary screening level for this test is 0.1% by weight of the test compound in the acetone-water solution.
as §1, §2

Row | Compound | Approximate LD50, GR (German cockroach)
9 | CCOP(=S)(OCC)SCC(=O)Nc1csc(NC(=O)CSP(=S)(OCC)OCC)n1 [Compound 1] | > .1%
10 | COP(=S)(OC)SCC(=O)Nc1csc(NC(=O)CSP(=S)(OC)OC)n1 [Compound 2, 2,4-Bis(O,O -dimethylphosphorodithioylacetamide)thiazole] | > .1%

test system: Salt-marsh Caterpillar [Estigmene acrea (Druryl)]; experiment: Salt-marsh caterpillar leaf dip test; type: in vivo; conditions: % by weight in solution, larvae, 48 hours plus 5 days if survivors
Procedure: G. Salt-marsh Caterpillar [Estigmene acrea (Druryl)]
as §3, §1, §2

Row | Compound | Approximate LD50, SMC (salt-marsh caterpillar)
11 | CCOP(=S)(OCC)SCC(=O)Nc1csc(NC(=O)CSP(=S)(OCC)OCC)n1 [Compound 1] | > .05%
12 | COP(=S)(OC)SCC(=O)Nc1csc(NC(=O)CSP(=S)(OC)OC)n1 [Compound 2, 2,4-Bis(O,O -dimethylphosphorodithioylacetamide)thiazole] | > .05%

test system: Black Bean Aphid [Aphis fabae (Scop.)]; experiment: Direct spray assay on black bean aphid; type: in vivo; conditions: % by weight in acetone-water, mortality after 3 days
Procedure: D. Direct Spray Assay on Black Bean Aphid [Aphis fabae (Scop.)]
A nasturtium plant (Tropaeolum sp.), approximately 5 cm tall, is transplanted into sandy loam soil in a 3-inch clay pot and infested with 25-50 black bean aphids of mixed ages. Twenty-four hours later the plant is sprayed, to the point of runoff, with a 50-50 acetone-water solution of the test chemical. The treated plant is held in the greenhouse and mortality is recorded after 3 days. The primary screening level for this test is 0.05% by weight of the test compound in the acetone-water solution.
as §1, §2

Row | Compound | Approximate LD50, BBA (black bean aphid)
13 | CCOP(=S)(OCC)SCC(=O)Nc1csc(NC(=O)CSP(=S)(OCC)OCC)n1 [Compound 1] | .05%
14 | COP(=S)(OC)SCC(=O)Nc1csc(NC(=O)CSP(=S)(OC)OC)n1 [Compound 2, 2,4-Bis(O,O -dimethylphosphorodithioylacetamide)thiazole] | .002%

test system: Green Peach Aphid [Myzus persicae (Sulzer)]; experiment: Direct spray assay on green peach aphid; type: in vivo; conditions: % by weight in acetone-water, mortality after 3 days
Procedure: E. Direct Spray Assay on Green Peach Aphid [Myzus persicae (Sulzer)]
A radish plant (Rhaphanus sativus), approximately 2 cm tall, is transplanted into sandy loam soil in a 3-inch clay pot and infested with 25-50 green peach aphids of mixed ages. Twenty-four hours later the plant is sprayed, to the point of runoff, with a 50-50 acetone-water solution of the test compound. The treated plant is held in a greenhouse and mortality is recorded after 3 days. The primary screening level for this test is 0.05% by weight of the test compound in the acetone-water solution.
as §1, §2

Row | Compound | Approximate LD50, GPA (green peach aphid)
15 | COP(=S)(OC)SCC(=O)Nc1csc(NC(=O)CSP(=S)(OC)OC)n1 [Compound 2, 2,4-Bis(O,O -dimethylphosphorodithioylacetamide)thiazole] | .03%

test system: Black Bean Aphid [Aphis fabae (Scop.)]; experiment: Systemic assay on black bean aphid; type: in vivo; conditions: ppm by weight in soil, mortality after seven days
Procedure: F. Systemic Assay on Black Bean Aphid [Aphis fabae (Scop.)]
The test chemical is diluted in acetone and an aliquot is thoroughly mixed into 500 grams of dry, sandy loam soil. The treated soil is placed in a pint ice cream carton and a nasturtium plant (Tropaeolum sp.) approximately 5 cm tall is transplanted into the carton. The plant is then infested with approximately 25 black bean aphids of mixed ages and placed in the greenhouse. Seven days later mortality is recorded. The primary screening level for this test is 10 ppm by weight of the test compound in the soil.
as §1, §2

Row | Compound | Approximate LD50, BAS (bean aphid systemic) [ppm]
16 | CCOP(=S)(OCC)SCC(=O)Nc1csc(NC(=O)CSP(=S)(OCC)OCC)n1 [Compound 1] | > 10
17 | COP(=S)(OC)SCC(=O)Nc1csc(NC(=O)CSP(=S)(OC)OC)n1 [Compound 2, 2,4-Bis(O,O -dimethylphosphorodithioylacetamide)thiazole] | > 10

test system: Two-Spotted Mite [Tetranychus urticae (Koch)]; experiment: Two-spotted mite plant dip test; type: in vivo; conditions: eggs; tested at primary screening level 0.05% only; < means more than 50% kill, > less than 50% kill; 7 days
Procedure: J. Two-Spotted Mite [Tetranychus urticae (Koch)]
A pinto bean plant (Phaseolus sp.), approximately 10 cm tall is transplanted into sandy loam soil in a 3-inch clay pot and infested with two-spotted mites of mixed ages and sexes. Twenty-four hours later the infested plants are inverted and dipped for 2-3 seconds in a 50-50 acetone-water solution of the test compound. The treated plant is held in a greenhouse for 7 days. Mortality is then determined for both the adult mites and the nynmphs hatching from eggs which were on the plants at the time of treatment. The primary screening level for this test is 0.05% by weight of the test compound in the acetone-water solution.
as §1

Row | Compound | Approximate LD50, 2SM (two-spotted mite) (2) eggs
18 | CCOP(=S)(OCC)SCC(=O)Nc1csc(NC(=O)CSP(=S)(OCC)OCC)n1 [Compound 1] | < .05%
19 | COP(=S)(OC)SCC(=O)Nc1csc(NC(=O)CSP(=S)(OC)OC)n1 [Compound 2, 2,4-Bis(O,O -dimethylphosphorodithioylacetamide)thiazole] | > .05%

same assay, conditions: post-embryonic; tested at primary screening level 0.05% only; < means more than 50% kill, > less than 50% kill; 7 days

Row | Compound | Approximate LD50, 2SM (two-spotted mite) (1) post-embryonic
20 | CCOP(=S)(OCC)SCC(=O)Nc1csc(NC(=O)CSP(=S)(OCC)OCC)n1 [Compound 1] | < .05%
21 | COP(=S)(OC)SCC(=O)Nc1csc(NC(=O)CSP(=S)(OC)OC)n1 [Compound 2, 2,4-Bis(O,O -dimethylphosphorodithioylacetamide)thiazole] | < .05%

test system: Housefly [Musca domestica (L.)]; experiment: Housefly insecticide evaluation; type: in vivo; conditions: per 25 female houseflies; mortality after 48 hours
Procedure: A. Housefly [Musca domestica (L.) ]
The test compound is diluted in acetone and an aliquot is pipetted onto the bottom of a 55 × 15 mm aluminum dish. To insure even spreading on the bottom of the dish, 1 ml of acetone containing 0.02% peanut oil is added. After all the solvent has evaporated, the dish is placed in a circular cardboard cage containing 25 1-day-old female houseflies. The cage is covered on the bottom with cellophane and the top with tulle netting, and contains a sugar-water saturated cotton plug for maintenance of the flies. Mortality is recorded after 48 hours. The primary screening level for this test is 100 micrograms of the test compound per 25 female houseflies.
as §1, §2

Row | Compound | Approximate LD50, HF (housefly) [µg]
22 | CCOP(=S)(OCC)SCC(=O)Nc1csc(NC(=O)CSP(=S)(OCC)OCC)n1 [Compound 1] | > 100
23 | COP(=S)(OC)SCC(=O)Nc1csc(NC(=O)CSP(=S)(OC)OC)n1 [Compound 2, 2,4-Bis(O,O -dimethylphosphorodithioylacetamide)thiazole] | > 100
